Assay results reported in patent publication EP4692088A1, “COMPOUND ACTING AS WRN HELICASE INHIBITOR” (SHANGHAI JEYOU PHARMACEUTICAL CO., LTD., priority 2023, dated 2024).

Experiments:
[1] = tested on: SW48 cells; assay: Cell proliferation assay (CellTiter-Glo), SW48; format: cell-based; conditions: Homo sapiens, SW48, 120 h, SW-48, 5 days incubation
Method: (§1) SW48 cells were plated at a density of 1,500 cells/well, and LoVo, HCT116, and SW620 cells were plated at a density of 800 cells/well in a 96-well cell culture plate, and cultured in a 37°C incubator overnight. The test compounds, which were gradient-diluted with DMSO, were added, and after incubation for 5 days, cell viability was detected using a CellTiter-Glo kit. The CellTiter-Glo reagent was equilibrated to room temperature, and an appropriate amount was added to the cell plate, followed by shaking at room temperature for 12 min. The luminescence signal was detected using a microplate reader.
(§2) The luminescence signal values of the DMSO-treated wells and cell-free wells were used as negative and positive controls, respectively, to calculate the inhibition rate of compound on cell proliferation. The concentration-inhibition curve was fitted using the "log(inhibitor) vs. normalized response -- Variable slope" equation in GraphPad Prism 8 software to obtain the IC50. [formula]

[2] = tested on: LoVo; assay: Cell proliferation assay (CellTiter-Glo), LoVo; format: cell-based; conditions: Homo sapiens, 120 h, 5 days incubation
Method: as §1, §2

[3] = tested on: SW620 cells; assay: γH2AX induction assay (HTRF Phospho-H2AX), SW620; format: cell-based; conditions: Homo sapiens, SW-620 (MSS), incubated for 2-3 days, read-out: γ-H2AX induction SW-620 (EC50 nM)
Method: (§3) SW48, HCT116, and SW620 cells were plated into 96-well cell culture plates at a density of 15,000-25,000 cells/well and cultured overnight in a 37°C incubator. The test compounds, which were gradient-diluted with DMSO, were added and incubated for 2-3 days. The γ-H2AX level was detected using HTRF Phospho-H2AX (SER139) Detection Kits. The 4× Lysis buffer and Detection buffer were equilibrated to room temperature for later use. The 4× Lysis buffer was diluted to 1× Lysis buffer using ddH2O. After the medium was aspirated, 50 µL of 1× Lysis buffer was added to each well and shaken at room temperature for 30 minutes for lysis. 16 µL of lysate was transferred to a 384-well plate, followed by the addition of 4 µL of diluted antibody mixture (Phospho-H2AX d2 antibody and Phospho-H2AX Eu Cryptate antibody were each diluted 20-fold using Detection buffer, and the two antibodies were then mixed uniformly at a 1:1 volume ratio). The mixture was incubated at room temperature for 2-24 h, and fluorescence signals at […] and 615 nm were detected using a microplate reader. Parallel treatment plates were simultaneously set up in the experiment, and cell viability was detected using the CellTiter-Glo kit. The CellTiter-Glo reagent was equilibrated to room temperature, and an appropriate amount was added to the cell plate, followed by shaking at room temperature for 12 min. The luminescence signal was detected using a microplate reader.
(§4) The fluorescence signal values of DMSO-treated wells and positive drug-treated wells were used as negative and positive controls, respectively, to calculate the level of γ-H2AX induced by the compounds. The concentration-induction rate curve was fitted using the "log(agonist) vs. response -- Variable slope (four parameters)" equation in GraphPad Prism 8 software to obtain the EC50. [formula] [formula]

[4] = Pharmacokinetic test in rats; format: in vivo; conditions: rat, SD rats, male, oral gavage, 10 mg/kg, plasma
Method: SD rats were taken as test animals. Example 4, Example 15, and Comparative Example HRO761 were given by gavage. The drug concentrations in rat plasma at different time points were determined by LC-MS/MS to investigate the pharmacokinetic characteristics of Example 4, Example 15, and Comparative Example HRO761 in rats.
• Experimental drugs: Example 4, Example 15, and Comparative Example HRO761; • Animals: SD rats, male, 240-260 g, purchased from Shanghai Jihui Laboratory Animal Care Co.,Ltd.
(§5) An appropriate amount of Example 4, Example 15, and Comparative Example HRO761 was weighed and added to an appropriate amount of dimethyl sulfoxide, solutol, and saline (final solvent: 5% DMSO + 10% solutol + 85% saline). The mixture was vortexed and sonicated to prepare a 1.0 mg/mL dosing solution.
The rats in gavage groups (3 rats per group) of Example 4, Example 15, and Comparative Example HRO761 were administered by oral gavage after overnight fasting (dose: 10 mg/kg, administration volume: 10 mL/kg), and the rats were fed 4 h after administration.
(§6) 0.2 mL of blood was collected from the animals before administration and at 0.083 h, 0.25 h, 0.5 h, 1 h, 2 h, 4 h, 6 h, 8 h, and 24 h after administration, and anticoagulated with sodium heparin. Blood samples were placed on ice after collection, and plasma was separated by centrifugation (centrifugation conditions: 8000 rpm, 5 min). The collected plasma was stored at -80°C before analysis.
The contents of Example 4, Example 15, and Comparative Example HRO761 in rat plasma after oral administration were determined by LC-MS/MS.
(§7) Based on the calculated concentrations of the compounds in plasma at different time points, the pharmacokinetic parameters of Example 4, Example 15, and Comparative Example HRO761 in rats were calculated using winnonlin software. The pharmacokinetic parameters of Example 4, Example 15, and Comparative Example HRO761 of the present disclosure are shown in Table 14.

[5] = tested on: SW48; assay: γH2AX induction assay (HTRF Phospho-H2AX), SW48; format: cell-based; conditions: Homo sapiens, SW-48, incubated for 2-3 days, read-out: γ-H2AX induction SW-48 (EC50 nM)
Method: as §3, §4

[6] = tested on: HCT116; assay: γH2AX induction assay (HTRF Phospho-H2AX), HCT116; format: cell-based; conditions: Homo sapiens, HCT-116, incubated for 2-3 days, read-out: γ-H2AX induction HCT-116 (EC50 nM)
Method: as §3, §4

[7] = Pharmacokinetic test in mice; format: in vivo; conditions: mouse, CD-1 mice, male, oral gavage, 10 mg/kg, plasma
Method: CD-1 mice were taken as test animals. Example 4, Example 22, and Comparative Example HRO761 were given by gavage. The drug concentrations in mouse plasma at different time points were determined by LC-MS/MS to investigate the pharmacokinetic characteristics of the compounds of the present disclosure in mice.
• Experimental drugs: Example 4, Example 22, and Comparative Example HRO761; • Animals: CD-1 mice, male, 24-25 g, purchased from Shanghai Jihui Laboratory Animal Care Co.,Ltd.
as §5, with “4, Example 22, and Comparative” for “4, Example 15, and Comparative”, “weighed and sequentially added to” for “weighed and added to”
Three mice in gavage groups of Example 4, Example 22, and Comparative Example HRO761 were administered by oral gavage after overnight fasting (dose: 10 mg/kg, administration volume: 10 mL/kg), and the mice were fed 4 h after administration.
as §6, with “0.04 mL” for “0.2 mL”
LC-MS/MS was used to determine the content of the test compound in mouse plasma after intragastric administration.
as §7, with “22,” for “15,”, “mice” for “rats”, “13.” for “14.”

[8] = tested on: SW620 cells; assay: Cell proliferation assay (CellTiter-Glo), SW620; format: cell-based; conditions: Homo sapiens, 120 h, SW-620 (MSS), 5 days incubation
Method: as §1, §2

[9] = tested on: HCT116 cells; assay: Cell proliferation assay (CellTiter-Glo), HCT116; format: cell-based; conditions: Homo sapiens, 120 h, HCT-116, 5 days incubation
Method: as §1, §2

- IC50 [1]: 144 nM
- IC50 [2]: 220 nM
- EC50 [3]: > 10000 nM
- Cmax [4]: 6960 ng/mL
- AUC ([4]; read-out: AUC0-i): 63600 ng·h/mL
- EC50 [5]: 324 nM
- EC50 [6]: 640 nM
- Cmax [7]: 11200 ng/mL
- AUC ([7]; read-out: AUC0-i): 28300 ng·h/mL
- IC50 [8]: > 25000 nM
- IC50 [9]: 143 nM
Compound: CCc1c(N2CCN(C(=O)c3ncnc(C)c3O)CC2)c(=O)n2nc(C3=CCOCC3)nc2n1CC(=O)Nc1ccc(C(F)(F)F)cc1Cl [HRO761, reference compound]
